Measured values reported in patent US20070148154A1, “Use of superoxide dismutase mimetics and reductase gultatione in the form of anticancer drugs” (UNIVERSITE RENE DESCARTES (PARIS V), priority 2004, published 2007).

What was measured:
[1] = system: CT26 carcinoma tumor cells in BALB/c mice; experiment: In vivo antitumor activity, subcutaneous CT26 tumors; set-up: species or system mouse; conditions: for decrease in tumor volume at one month compared with the nontreated animals / decrease in tumor volume at one month compared with animals treated only with oxaliplatin: 10 mg/kg i.p.; for decrease in tumor volume at one month compared with the nontreated animals: no oxaliplatin; for decrease in tumor volume at one month compared with animals treated only with oxaliplatin: plus oxaliplatin 20 mg/kg
Method: (§1) The in vivo antitumor activity of various antioxidant treatments was estimated. For these experiments, female six- to eight-week-old BALB/c (for the injection of CT-26 tumor cells) or C57/BL6 (for the injection of Hepa 1-6 tumor cells) mice were used (IFFA CREDO, L'Arbresles, France). Two million tumor cells were injected into the back of the animals subcutaneously. When the size of the tumor reached 200 to 500 mm^3, the animals were given a single injection of 20 mg/kg of oxaliplatin (ELOXATIN®) or of a saline solution.
(§2) The mice were then treated intraperitoneally, two hours after the injection of oxaliplatin or of saline solution, with 10 mg/kg of mangafodipir, of MnTBAP or of CuDIPS, or with 150 mg/kg of NAC, or with a saline solution. The injection of the various antioxidants was continued for one month (three injections per week at the same doses). A group of mice inoculated with tumor cells was not treated.
(§3) The size of the tumors was measured every three days. The tumor volume was calculated as follows: VT (mm^3)=(L×W^2)/2, where L is the longest dimension and W the shortest dimension of the tumor in mm. Fifteen mice were included in each group.

[2] = system: plasmid pcDNA3.1; experiment: Plasmid DNA alteration (agarose gel electrophoresis, densitometry); conditions: for effect on the structure of plasmid DNA (form I / II / III): 37° C., 24 h, SOD mimetics 5 μM, oxaliplatin maximum at DNA/oxaliplatin ratio 0.5
Method: The purified plasmid pcDNA3.1 (INVITROGEN) was used to analyze the potential DNA alterations in response to the addition of molecules used in cancer chemotherapy in the presence, or in the absence, of antioxidant enzyme modulators. This DNA was then stored at −20° C. in 10 mM TRIS, 1 mM EDTA until its use.
The plasmid DNA was incubated with oxaliplatin at a molar ratio of 0.50 in a final volume of 50 μl. MnTBAP (5 μM), CuDIPS (5 μM), mangafodipir (5 μM) or NAC (5 mM) were then added to the solution. The production of superoxide anion was realized by the addition of 200 μM xanthine (SIGMA) and 1 U of xanthine oxidase (SIGMA). The incubation was carried out in the dark at 37° C. for 24 h. At the end of the incubation period, 10 μl aliquots were subjected to 0.8% agarose gel electrophoresis and detected by ethidium bromide staining. The gels were then analyzed by densitometry (VILBER LOURMAT, Marnes-la-Vallée, France).

[3] = system: Hepa 1-6 cells in C57BL/6 mice; experiment: In vivo antitumor activity, subcutaneous Hepa 1-6 tumors; set-up: species or system mouse; conditions: for decrease in tumor volume at one month compared with the nontreated animals: no oxaliplatin; for effect on the inhibitory (antitumor) effect of oxaliplatin on tumor growth: mice treated with oxaliplatin 20 mg/kg, NAC 150 mg/kg, SOD mimetics 10 mg/kg i.p.
Method: as §1, §2, §3

[4] = system: Hepa 1-6, CT26 and A549 tumor cells; experiment: In vitro viability test (MTT), result stated for the tumor lines together; conditions: for effect on tumor cell viability: 0 to 400 μM, 48 h; for effect on the cytotoxic effect of oxaliplatin on tumor cells: with 10 μM oxaliplatin; for effect on the cytotoxic effect of oxaliplatin on tumor cells / effect on the cytotoxic activity of taxol on tumor cells / effect on the cytotoxic activity of 5-FU on tumor cells: increasing concentrations of antioxidant; for effect on the cytotoxic activity of taxol on tumor cells: with 10 μM taxol; for effect on the cytotoxic activity of 5-FU on tumor cells: with 50 μM 5-FU
Method: In vitro viability tests, in response to the treatment with NAC, CuDIPS, MnTBAP or MnDPDP, were carried out on the cell lines of Example 1 and on normal human leukocytes.
(§4) For the viability test, the cells (2×10^4 cells/well) were seeded into 96-well plates (COSTAR, Corning Inc. NY, USA) and incubated for 48 hours in complete medium supplemented with increasing concentrations, from 0 to 400 μm, of NAC, of MnTBAP, of CuDIPS or of MnDPDP. The cell viability was evaluated by reduction of a methylthiazoletetrazolium salt (MTT; SIGMA) into formazan. The cells were exposed to 20 μl of MTT (5 mg/ml in PBS) and incubated for 4 h at 37° C. 150 μl of medium were then removed from each well and the reaction was visualized by the addition of 100 μl of DMSO (SIGMA). The absorbance was analyzed for each well at 550 nm and at 630 nm with an ELISA plate reader. The number of viable cells was determined by the difference between the absorbance at 550 nm and the absorbance at 630 nm.
For each of these molecules, cell proliferation assays and cell viability tests were carried out, in the absence of antioxidant molecules, or in the presence of increasing concentrations of NAC, of MnTBAP, of CuDIPS or of MnDPDP.
(§5) The viability tests were carried out on the CT26, Hepa 16 and A549 tumor lines, and on normal human leukocytes, according to the protocol described in Example 2.

[5] = system: normal human leukocytes; experiment: In vitro viability test (MTT); conditions: for effect on viability of normal human leukocytes / decrease in cell viability, maximum: 0 to 400 μM, 48 h; for effect on the cytotoxic effect of taxol on normal leukocytes: with 20 μM taxol; for effect on the cytotoxic effect of taxol on normal leukocytes / effect on the cytotoxic effect of oxaliplatin on normal leukocytes / effect on the cytotoxic effect of 5-FU on normal leukocytes: increasing concentrations of antioxidant; for effect on the cytotoxic effect of oxaliplatin on normal leukocytes: with 1 mM oxaliplatin; for effect on the cytotoxic effect of 5-FU on normal leukocytes: with 40 mM 5-FU; for decrease in viability of normal leukocytes, antitumor agent alone: no antioxidant
Method: (§6) In vitro viability tests, in response to the treatment with NAC, CuDIPS, MnTBAP or MnDPDP, were carried out on the cell lines of Example 1 and on normal human leukocytes. The latter were obtained from normal volunteers, after informed consent, by taking venous blood samples collected on an anticoagulant (lithium-heparinate). The red blood cells were lysed by osmotic shock using a hypotonic solution of potassium acetate and the leukocytes were cultured under the conditions described in Example 1.
as §4, §5

[6] = system: Hepa 1-6, CT26 and A549 tumor cells; experiment: In vitro cell proliferation assay ([3H]-thymidine), result stated for the tumor lines together; conditions: for reduction in cell proliferation: 400 μM, 48 h incubation; for effect on the cytostatic (antiproliferative) effect of oxaliplatin: with 10 μM oxaliplatin; for effect on the cytostatic (antiproliferative) effect of oxaliplatin / effect on the cytostatic effect of taxol / effect on the cytostatic effect of 5-FU: increasing concentrations of antioxidant; for effect on the cytostatic effect of taxol: with 10 μM taxol; for effect on the cytostatic effect of 5-FU: with 50 μM 5-FU
Method: (§7) In vitro cell proliferation assays were carried out on the following cell lines: CT26 (mouse colon carcinoma, ATCC (American Type Culture Collection) No. 2638), Hepa 1-6 (mouse liver hepatoma, ATCC No. 1830), A549 (human lung carcinoma, ATCC No. 185).
(§8) The cell proliferation is determined by incubating the cells for 16 hours with [^3H]-thymidine (1 μCi/well).
The following antitumor molecules: oxaliplatin (belonging to the cisplatin family); taxol; 5-fluorouracil; which are known to induce ROS production in tumor cells, were used. For each of these molecules, cell proliferation assays and cell viability tests were carried out, in the absence of antioxidant molecules, or in the presence of increasing concentrations of NAC, of MnTBAP, of CuDIPS or of MnDPDP.

[7] = system: CT26 (mouse colon carcinoma); experiment: In vitro cell proliferation assay ([3H]-thymidine); assay type: cell-based; conditions: for decrease in tumor cell proliferation, antitumor agent alone: no antioxidant
Method: as §7, §8

[8] = system: Hepa 1-6 (mouse liver hepatoma); experiment: In vitro cell proliferation assay ([3H]-thymidine); assay type: cell-based; conditions: for decrease in tumor cell proliferation, antitumor agent alone: no antioxidant
Method: as §7, §8

[9] = system: CT26 tumor cells; experiment: In vitro viability test (MTT); assay type: cell-based, mouse; conditions: for viability reduced by: 400 μM, 48 h
Method: as §6, §4, §5

[10] = system: A549 (human lung carcinoma); experiment: In vitro cell proliferation assay ([3H]-thymidine); assay type: cell-based; conditions: for decrease in tumor cell proliferation, antitumor agent alone: no antioxidant
Method: as §7, §8

[11] = system: Hepa 1-6 tumor cells; experiment: In vitro viability test (MTT); assay type: cell-based, mouse; conditions: for viability reduced by: 400 μM, 48 h
Method: as §6, §4, §5

[12] = system: A549 tumor cells; experiment: In vitro viability test (MTT); assay type: cell-based, human; conditions: for viability reduced by: 400 μM, 48 h
Method: as §6, §4, §5

[13] = 10 mg/kg i.p., three injections per week

manganese dipyridoxyl phosphate [MnDPDP]
decrease in tumor volume at one month compared with the nontreated animals ([1]; three injections per week): 54%
decrease in tumor volume at one month compared with animals treated only with oxaliplatin ([1]; three injections per week): 63%
effect on the structure of plasmid DNA (form I / II / III) [2]: induces, per se, DNA damage
decrease in tumor volume at one month compared with the nontreated animals [3, 13]: 34%
decrease in tumor volume at one month compared with animals treated only with oxaliplatin ([3]; 10 mg/kg i.p., three injections per week, plus oxaliplatin 20 mg/kg): 63%
effect on tumor cell viability [4]: reduces, in a dose-dependent manner
effect on the cytotoxic effect of oxaliplatin on tumor cells [4]: increase
effect on the cytotoxic activity of taxol on tumor cells [4]: increases
effect on the cytotoxic activity of 5-FU on tumor cells [4]: increases
effect on viability of normal human leukocytes [5]: does not influence
effect on the cytotoxic effect of taxol on normal leukocytes [5]: inhibits
effect on the cytotoxic effect of oxaliplatin on normal leukocytes [5]: inhibits
effect on the cytotoxic effect of 5-FU on normal leukocytes [5]: inhibits
reduction in cell proliferation [6]: ~90%
effect on the cytostatic (antiproliferative) effect of oxaliplatin [6]: increase
effect on the cytostatic effect of taxol [6]: increases
effect on the cytostatic effect of 5-FU [6]: increase

N[C@@H]1CCCC[C@H]1N.O=C([O-])C(=O)[O-].[Pt+2] [oxaliplatin, [(1R,2R)-1,2-cyclohexanediamine-N,N′][oxalate-(2-)—O,O′]platinum (II)]
decrease in tumor cell proliferation, antitumor agent alone ([7]; 10 μM): 91%
decrease in tumor cell proliferation, antitumor agent alone ([8]; 10 μM): 70%
tumor volumes compared with the nontreated animals ([1]; single injection of 20 mg/kg): divides the tumor volumes in half
effect on the structure of plasmid DNA (form I / II / III) [2]: dose-dependent impairment
decrease in cell viability, antitumor agent alone, on average ([9]; 10 μM, no antioxidant): 27%
decrease in tumor cell proliferation, antitumor agent alone ([10]; 10 μM): 93%
tumor volumes compared with the nontreated animals ([3]; single injection of 20 mg/kg): divides the tumor volumes by four
decrease in cell viability, antitumor agent alone, on average ([11]; 10 μM, no antioxidant): 50%
decrease in viability of normal leukocytes, antitumor agent alone ([5]; 1 mM): approximately 50%
decrease in cell viability, antitumor agent alone, on average ([12]; 10 μM, no antioxidant): 28%

CC(=O)N[C@@H](CS)C(=O)O [NAC, N-acetylcystein]
increase in proliferation ([7]; 400 μM, 48 h incubation): 47%
increase in proliferation ([8]; 100 μM, 48 h incubation): 73%
increase in tumor volumes after one month compared with mice which do not receive NAC ([1]; 150 mg/kg i.p., three injections per week, mice not treated with oxaliplatin): 44%
effect on the inhibitory effect of oxaliplatin on tumor growth ([1]; mice treated with oxaliplatin 20 mg/kg, NAC 150 mg/kg i.p.): completely blocks
effect on DNA impairments by mangafodipir, ROS and oxaliplatin ([2]; NAC 5 mM): partially inhibit
effect on DNA impairment by superoxide anions (xanthine/xanthine oxidase) ([2]; NAC 5 mM, X/XO): inhibited
effect on DNA damage by oxaliplatin coincubated with X/XO ([2]; NAC 5 mM, X/XO and low doses of oxaliplatin): decreases the damage
increase in proliferation ([10]; 400 μM, 48 h incubation): 45%
increase in tumor volumes after one month compared with mice which are not given NAC ([3]; 150 mg/kg i.p., three injections per week): 50%
effect on the inhibitory (antitumor) effect of oxaliplatin on tumor growth [3]: completely blocks
effect on tumor cell viability [4]: no effect
effect on the cytotoxic effect of oxaliplatin on tumor cells [4]: decreases
effect on the cytotoxic activity of taxol on tumor cells [4]: does not influence
effect on the cytotoxic activity of 5-FU on tumor cells [4]: does not modify
effect on viability of normal human leukocytes [5]: no effect
effect on the cytotoxic effect of taxol on normal leukocytes [5]: decreases
effect on the cytotoxic effect of oxaliplatin on normal leukocytes [5]: decreases
effect on the cytotoxic effect of 5-FU on normal leukocytes [5]: decreases
effect on the cytostatic (antiproliferative) effect of oxaliplatin [6]: reduces
effect on the cytostatic effect of taxol [6]: reduces
effect on the cytostatic effect of 5-FU [6]: inhibits

O=c1[nH]cc(F)c(=O)[nH]1 [5-FU, 5-fluoro-1,2,3,4-tetrahydropyrimidine-2,5-dione]
decrease in tumor cell proliferation, antitumor agent alone ([7]; 50 μM): 91%
decrease in tumor cell proliferation, antitumor agent alone ([8]; 50 μM): 91%
cytotoxicity at 50 µM ([9]; Mus musculus, CT26, 50 μM, no antioxidant, read-out: decrease in cell viability, antitumor agent alone, on average): 85%
decrease in tumor cell proliferation, antitumor agent alone ([10]; 50 μM): 85%
cytotoxicity at 50 µM ([11]; Mus musculus, Hepa1-6, 50 μM, no antioxidant, read-out: decrease in cell viability, antitumor agent alone, on average): 65%
decrease in viability of normal leukocytes, antitumor agent alone ([5]; 40 mM): approximately 19%
cytotoxicity at 50 µM ([12]; Homo sapiens, A549, 50 μM, no antioxidant, read-out: decrease in cell viability, antitumor agent alone, on average): 25%

CC(=O)O[C@H]1C(=O)[C@@]2(C)[C@H]([C@H](OC(=O)c3ccccc3)[C@]3(O)C[C@H](OC(=O)[C@H](O)[C@@H](NC(=O)c4ccccc4)c4ccccc4)C(C)=C1C3(C)C)[C@]1(OC(C)=O)CO[C@@H]1C[C@@H]2O [taxol]
decrease in tumor cell proliferation, antitumor agent alone ([7]; 10 μM): 71%
decrease in tumor cell proliferation, antitumor agent alone ([8]; 10 μM): 65%
cytotoxicity at 10 µM ([9]; Mus musculus, CT26, 10 μM, no antioxidant, read-out: decrease in cell viability, antitumor agent alone, on average): 50%
decrease in tumor cell proliferation, antitumor agent alone ([10]; 10 μM): 85%
cytotoxicity at 10 µM ([11]; Mus musculus, Hepa1-6, 10 μM, no antioxidant, read-out: decrease in cell viability, antitumor agent alone, on average): 25%
decrease in viability of normal leukocytes, antitumor agent alone ([5]; 20 μM): approximately 50%
cytotoxicity at 10 µM ([12]; Homo sapiens, A549, 10 μM, no antioxidant, read-out: decrease in cell viability, antitumor agent alone, on average): 47%

CC(C)c1cc(C(=O)[O-])c(O)c(C(C)C)c1.CC(C)c1cc(C(=O)[O-])c(O)c(C(C)C)c1.[Cu+2] [CuDIPS, Cu[II]-[diisopropylsalicylate]]
decrease in tumor volume at one month compared with the nontreated animals ([1]; three injections per week): 28%
decrease in tumor volume at one month compared with animals treated only with oxaliplatin ([1]; three injections per week): 31%
viability reduced by [9]: 85%
decrease in tumor volume at one month compared with the nontreated animals [3, 13]: 9%
effect on the inhibitory (antitumor) effect of oxaliplatin on tumor growth [3]: does not significantly increase
effect on the cytotoxic effect of oxaliplatin on tumor cells [4]: increase
effect on the cytotoxic activity of taxol on tumor cells [4]: increases
effect on the cytotoxic activity of 5-FU on tumor cells [4]: increases
viability reduced by [11]: 74%
decrease in cell viability, maximum [5]: 50%
effect on the cytotoxic effect of taxol on normal leukocytes [5]: increases
effect on the cytotoxic effect of oxaliplatin on normal leukocytes [5]: increase
effect on the cytotoxic effect of 5-FU on normal leukocytes [5]: increases
reduction in cell proliferation [6]: ~90%
effect on the cytostatic (antiproliferative) effect of oxaliplatin [6]: increase
effect on the cytostatic effect of taxol [6]: increases
effect on the cytostatic effect of 5-FU [6]: increase
viability reduced by [12]: 50%

O=C(O)c1ccc(-c2c3nc(c(-c4ccc(C(=O)O)cc4)c4ccc([n-]4)c(-c4ccc(C(=O)O)cc4)c4nc(c(-c5ccc(C(=O)O)cc5)c5ccc2[n-]5)C=C4)C=C3)cc1.[Mn+3] [MnTBAP, Mn(III) tetrakis(5,10,15,20-benzoic acid)-porphyrin]
decrease in tumor volume at one month compared with the nontreated animals ([1]; three injections per week): 59%
decrease in tumor volume at one month compared with animals treated only with oxaliplatin ([1]; three injections per week): 35%
viability reduced by [9]: 75%
decrease in tumor volume at one month compared with the nontreated animals [3, 13]: 42%
effect on the inhibitory (antitumor) effect of oxaliplatin on tumor growth [3]: does not significantly increase
effect on the cytotoxic effect of oxaliplatin on tumor cells [4]: increase
effect on the cytotoxic activity of taxol on tumor cells [4]: increases
effect on the cytotoxic activity of 5-FU on tumor cells [4]: increases
viability reduced by [11]: 62%
decrease in cell viability, maximum [5]: 18%
effect on the cytotoxic effect of taxol on normal leukocytes [5]: virtually no influence
effect on the cytotoxic effect of oxaliplatin on normal leukocytes [5]: increase
effect on the cytotoxic effect of 5-FU on normal leukocytes [5]: only a very weak influence
reduction in cell proliferation [6]: ~90%
effect on the cytostatic (antiproliferative) effect of oxaliplatin [6]: increase
effect on the cytostatic effect of taxol [6]: increases
effect on the cytostatic effect of 5-FU [6]: increase
viability reduced by [12]: 37%
